Several values for one entry are separate records, joined by “and”; a condition that tells them apart may be missing. Identical values can stand only once.
Test system: closed head injury (CHI)
Assay: Closed head injury (CHI) model, neurological severity score, C57Bl mice
Format: in vivo
Experimental: The study was conducted according to the guidelines of the Institutional Animal Care Committee of the Hebrew University. Male Sabra mice weighing 35 to 50 g were used in all experiments. Animals were kept under controlled light conditions with a 12 h/12 h light/dark cycle. Experimental closed head injury (CHI) was induced using a modified weight drop device developed in our laboratory as described previously (Chen et al., 1996). At 1 h after CHI, the functional status of the mice was evaluated according to a set of 10 neurobehavioral tasks, namely the neurological severity score (NSS). This score is based on the ability of the mice to perform 10 different tasks (Beni-Adani et al., 2001) that evaluate their motor ability, balance, and alertness. One point is given for failing to perform a task. The severity of injury is indicated by the initial NSS, which is evaluated 1 h after CHI and is also a reliable predictor of the later outcome. A score of 10 reflects maximal neurologic impairment, and a decrease of NSS during the recovery period indicates partial recovery of function.
Data was analyzed using the Prism 4.02 programme (GraphPad Software, San Deigo, Calif., USA). The data are expressed as mean±SEM and statistical significance was assessed with one way analysis of variance (ANOVA) followed by a Dunnett's post-hoc analysis for TNF-α levels. […]

With `CCCCCCC(C)(C)c1cc(OC)c(C2=C[C@H]3CC[C@]2(C(=O)O)C3(C)C)c(OC)c1` [HU-914, (1S,4R)-2-(2,6-dimethoxy-4-(2-methyloctan-2-yl)phenyl)-7,7-dimethylbicyclo[2.2.1]hept-2-ene-1-carboxylic acid] as the compound, how does the “recovery, Neurological Severity Score (NSS)” value (HU-914 2.5 and 5 mg/kg i.p., day 14 post injury, vs vehicle or 10 mg/kg) read?
Its value is “significant greater recovery”.

What about the “most effective doses (NSS recovery)” value (i.p. 1 h after CHI, followed 14 days) of the same compound?
Its value is 2.5 mg/kg and 5 mg/kg.

From patent US9365534B2, “Arylated camphenes, processes for their preparation and uses thereof” (Yissum Research Development Company of the Hebrew …, priority 2009, dated 2016)
